Tests used:
Assay type in all cases: biochemical
JAK1 = target: T1, JAK1 (Homo sapiens, UniProt P23458); test: JAK1 inhibition (Table 4); conditions: read-out: JAK1 Ki
T1 construct: made in house; host or cells: SF9 insect cells (baculovirus)

JAK3 = target: T2, JAK3 (Homo sapiens, UniProt P52333); test: JAK3 inhibition (Table 4); conditions: read-out: JAK3 Ki
T2 construct: made in house; host or cells: SF9 insect cells (baculovirus)

TYK2 = target: T3, TYK2 (Homo sapiens, UniProt P29597); test: TYK2 inhibition (Table 4)
T3 construct: made in house; host or cells: SF9 insect cells (baculovirus)
T3 sequence (P29597 873-1187): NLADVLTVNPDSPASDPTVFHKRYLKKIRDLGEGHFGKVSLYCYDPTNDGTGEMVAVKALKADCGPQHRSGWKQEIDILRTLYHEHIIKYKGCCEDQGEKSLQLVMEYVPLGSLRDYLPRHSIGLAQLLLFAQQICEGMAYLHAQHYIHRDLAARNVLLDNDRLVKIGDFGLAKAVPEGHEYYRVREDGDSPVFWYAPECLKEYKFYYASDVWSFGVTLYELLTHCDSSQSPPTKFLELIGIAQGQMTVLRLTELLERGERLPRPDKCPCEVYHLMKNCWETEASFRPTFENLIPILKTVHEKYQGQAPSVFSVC

JAK2 = target: T4, JAK2 (Homo sapiens, UniProt O60674); test: JAK2 inhibition (Table 4); conditions: read-out: JAK2 Ki
T4 construct: made in house; host or cells: SF9 insect cells (baculovirus)
T4 sequence (O60674 812-1132): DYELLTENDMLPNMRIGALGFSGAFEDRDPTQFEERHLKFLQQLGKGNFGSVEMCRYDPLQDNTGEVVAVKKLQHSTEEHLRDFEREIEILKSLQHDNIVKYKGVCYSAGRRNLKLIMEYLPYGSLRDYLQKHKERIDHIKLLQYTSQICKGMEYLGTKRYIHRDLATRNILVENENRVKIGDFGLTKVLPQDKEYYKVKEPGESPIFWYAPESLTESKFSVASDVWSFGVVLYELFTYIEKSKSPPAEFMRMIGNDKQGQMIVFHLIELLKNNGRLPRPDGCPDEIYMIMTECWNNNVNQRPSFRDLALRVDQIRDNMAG

T1 sequence (P23458 852-1154): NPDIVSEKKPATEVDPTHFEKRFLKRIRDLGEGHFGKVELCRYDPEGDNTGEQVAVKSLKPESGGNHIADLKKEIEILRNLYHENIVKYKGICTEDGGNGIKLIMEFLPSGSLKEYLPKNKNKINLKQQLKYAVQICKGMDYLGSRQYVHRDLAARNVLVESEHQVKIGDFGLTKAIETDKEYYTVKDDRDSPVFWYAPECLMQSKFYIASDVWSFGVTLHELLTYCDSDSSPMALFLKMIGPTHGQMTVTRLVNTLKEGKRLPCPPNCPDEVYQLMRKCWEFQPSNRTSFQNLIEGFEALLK
T2 sequence (P52333 783-1124): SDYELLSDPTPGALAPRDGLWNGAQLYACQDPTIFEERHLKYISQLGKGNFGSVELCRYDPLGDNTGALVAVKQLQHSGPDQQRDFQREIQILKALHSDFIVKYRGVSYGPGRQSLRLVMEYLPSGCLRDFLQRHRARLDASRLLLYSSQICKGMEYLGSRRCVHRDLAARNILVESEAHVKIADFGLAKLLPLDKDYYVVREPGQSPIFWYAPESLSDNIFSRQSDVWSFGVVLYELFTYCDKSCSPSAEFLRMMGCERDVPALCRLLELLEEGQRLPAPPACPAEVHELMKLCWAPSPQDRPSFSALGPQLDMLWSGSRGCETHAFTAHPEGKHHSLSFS

Ki (JAK1) [nM]	Ki (JAK3) [nM]	Ki (TYK2) [nM]	Ki (JAK2) [nM]	Structure (SMILES)
65.3		1530	596	O=C([C@@H]1CCCN1C1CCC1)N1CCC(n2cnc3cnc4[nH]ccc4c32)CC1 [Example 147, ((S)-1-Cyclobutyl-pyrrolidin-2-yl)-[4-(6H-1,2,3,5,6-tetraaza-as-indacen-1-yl)-piperidin-1-yl]-methanone]
292		2930	186	CC(C)(C)OC(=O)N1CCC(n2c(C#N)nc3cnc4[nH]ccc4c32)CC1 [Example 169, 4-(2-Cyano-6H-1,2,3,5,6-tetraaza-as-indacen-1-yl)-piperidine-1-carboxylic acid tert-butyl ester]
89.5		1410	362	N#Cc1cccc(CC(=O)N2CC[C@@H](n3cnc4cnc5[nH]ccc5c43)C2)c1 [Example 189, 3-{2-oxo-2-[(R)-3-(6H-1,2,3,5,6-tetraaza-as-indacen-1-yl)-pyrrolidin-1-yl]-ethyl}-benzonitrile]
111		3150	697	CN1CCN(CC(=O)N2CCC(n3cnc4cnc5[nH]ccc5c43)CC2)CC1 [Example 193, 2-(4-Methyl-piperazin-1-yl)-1-[4-(6H-1,2,3,5,6-tetraaza-as-indacen-1-yl)-piperidin-1-yl]-ethanone]
200	397	3430		CN(C(=O)Cc1nc2cnc3[nH]ccc3c2n1C1CCNCC1)C1CCCC1 [Example 257, N-Cyclopentyl-N-methyl-2-(1-piperidin-4-yl-1,6-dihydro-1,3,5,6-tetraaza-as-indacen-2-yl)-acetamide]
51.8		2410	402	Cc1nc2cnc3[nH]ccc3c2n1C1CCN(C(=O)[C@@H]2CCCN2C)CC1 [Example 285]
211		2230	894	CN(C)CC(=O)N1CC[C@@H](n2cnc3cnc4[nH]ccc4c32)C1 [Example 429, 2-Dimethylamino-1-[(R)-3-(6H-1,3,5,6-tetraaza-as-indacen-1-yl)-pyrrolidin-1-yl]-ethanone]
22.4		293	87.6	N#Cc1ccc(S(=O)(=O)N2CC[C@@H](n3cnc4cnc5[nH]ccc5c43)C2)cc1 [Example 433, 4-[(R)-3-(6H-1,3,5,6-Tetraaza-as-indacen-1-yl)-pyrrolidine-1-sulfonyl]-benzonitrile]
481		3420	370	Cc1nc(S(=O)(=O)N2CCC(n3cnc4cnc5[nH]ccc5c43)CC2)cn1C [Example 444, 1-[1-(1,2-Dimethyl-1H-imidazole-4-sulfonyl)-piperidin-4-yl]-1,6-dihydro-1,3,5,6-tetraaza-as-indacene]
223		2790	484	CC(C)N1CCC(n2nnc3cnc4[nH]ccc4c32)CC1 [Example 548, 1-(1-Isopropyl-piperidin-4-yl)-1,6-dihydro-1,2,3,5,6-pentaaza-as-indacene]
24.5	600		1210	CC(C)n1cc(CN2CCC(n3c([C@@H](C)O)nc4cnc5[nH]ccc5c43)CC2)cn1 [Example 824, (R)-1-{1-[1-(1-Isopropyl-1H-pyrazol-4-ylmethyl)-piperidin-4-yl]-1,6-dihydro-1,3,5,6-tetraaza-as-indacen-2-yl}-ethanol]
73.9	1460		1720	Cc1nc(CN2CCC(n3c([C@@H](C)O)nc4cnc5[nH]ccc5c43)CC2)n(C)c1C [Example 827, (R)-1-{1-[1-(1,4,5-Trimethyl-1H-imidazol-2-ylmethyl)-piperidin-4-yl]-1,6-dihydro-1,3,5,6-tetraaza-as-indacen-2-yl}-ethanol]
90.5	949		1670	Cc1nn(C)cc1CN1CCC(n2c([C@@H](C)O)nc3cnc4[nH]ccc4c32)CC1 [Example 828, (R)-1-{1-[1-(1,3-Dimethyl-1H-pyrazol-4-ylmethyl)-piperidin-4-yl]-1,6-dihydro-1,3,5,6-tetraaza-as-indacen-2-yl}-ethanol]
94.3	1320		939	CCn1cc(CN2CCC(n3c([C@@H](C)O)nc4cnc5[nH]ccc5c43)CC2)c(C)n1 [Example 829, (R)-1-{1-[1-(1-Ethyl-3-methyl-1H-pyrazol-4-ylmethyl)-piperidin-4-yl]-1,6-dihydro-1,3,5,6-tetraaza-as-indacen-2-yl}-ethanol]
109	711		1730	Cc1ncc(CN2CCC(n3c([C@@H](C)O)nc4cnc5[nH]ccc5c43)CC2)n1C [Example 830, (R)-1-{1-[1-(2,3-Dimethyl-3H-imidazol-4-ylmethyl)-piperidin-4-yl]-1,6-dihydro-1,3,5,6-tetraaza-as-indacen-2-yl}-ethanol]
309	1000		2680	Cc1nn(C)c(C)c1CN1CCC(n2c([C@@H](C)O)nc3cnc4[nH]ccc4c32)CC1 [Example 831, (R)-1-{1-[1-(1,3,5-Trimethyl-1H-pyrazol-4-ylmethyl)-piperidin-4-yl]-1,6-dihydro-1,3,5,6-tetraaza-as-indacen-2-yl}-ethanol]
7.77	52.4	19.8		OC[C@H](O)c1nc2cnc3[nH]ccc3c2n1C1CCCCC1 [Example 858, (R)-1-(1-Cyclohexyl-1,6-dihydro-1,3,5,6-tetraaza-as-indacen-2-yl)-ethane-1,2-diol]
267	1370		1440	C[C@@H](O)c1nc2cnc3[nH]ccc3c2n1C1CCN(CC(=O)N2CCOCC2)CC1 [Example 870, 2-{4-[2-((R)-1-Hydroxy-ethyl)-6H-1,3,5,6-tetraaza-as-indacen-1-yl]-piperidin-1-yl}-1-morpholin-4-yl-ethanone]
164	998		983	C[C@@H](O)c1nc2cnc3[nH]ccc3c2n1C1CCN(CC(=O)N2CCCC2)CC1 [Example 872, 2-{4-[2-((R)-1-Hydroxy-ethyl)-6H-1,3,5,6-tetraaza-as-indacen-1-yl]-piperidin-1-yl}-1-pyrrolidin-1-yl-ethanone]
44.1		1790	515	CCN1CCCC[C@H]1C(=O)N1CCC(n2cnc3cnc4[nH]ccc4c32)CC1 [Example 949, ((S)-1-Ethyl-piperidin-2-yl)-[4-(6H-1,3,5,6-tetraaza-as-indacen-1-yl)-piperidin-1-yl]-methanone]
141		2880	480	O=C([C@@H]1CCCCN1C1COC1)N1CCC(n2cnc3cnc4[nH]ccc4c32)CC1 [Example 951, ((S)-1-Oxetan-3-yl-piperidin-2-yl)-[4-(6H-1,3,5,6-tetraaza-as-indacen-1-yl)-piperidin-1-yl]-methanone]

Structure (SMILES)	Ki (JAK1) [nM]	Ki (JAK3) [nM]	Ki (TYK2) [nM]	Ki (JAK2) [nM]
OCC(O)c1nc2cnc3[nH]ccc3c2n1C1CCCCC1 (racemic) [Example 853, 1-(1-Cyclohexyl-1,6-dihydro-1,3,5,6-tetraaza-as-indacen-2-yl)-ethane-1,2-diol]	1.98	20.4	5.29	
OC[C@@H](O)c1nc2cnc3[nH]ccc3c2n1C1CCCCC1 [Example 688, (S)-1-(1-Cyclohexyl-1,6-dihydro-1,2,3,5,6-tetraaza-as-indacen-2-yl)-ethane-1,2-diol]	1.77	16.1	4.7	

Reference: patent US8461328B2, “Tricyclic heterocyclic compounds, compositions and methods of use thereof” (Genentech, Inc., priority 2010, dated 2013)
